# According to patent publication US20250313546A1, “NUCLEIC ACID BINDERS” (UNIVERSITY OF STRATHCLYDE, priority 2022, published 2025):
# How the values were obtained:
# [1] = tested on: SARS-CoV-2 (hCoV-19/Australia/VIC01/2020); assay: SARS-CoV-2 microplaque inhibition assay in Vero-E6 cells; format: cell-based; settings: for IC50: Severe acute respiratory syndrome coronavirus 2, Vero C1008, plaque inhibition, Vero-E6 cells, read-out: IC50 SARS-CoV-2
# [2] = tested on: Candida glabrata (ACPF3309); settings: Nakaseomyces glabratus, read-out: MIC99 Candida glabrata
# T. equiperdum = assay: Resazurin-based (Alamar blue) drug sensitivity assay; settings: Trypanosoma equiperdum, read-out: IC50 T. equiperdum
# [3] = tested on: Rhizopus arrhizus (NEQAS12.35321); settings: read-out: MIC99 Rhizopus arrhizus
# [4] = tested on: PolyAU double stranded RNA; assay: Fluorescence intercalator displacement (FID) assay, SYBR-safe probe; settings: 20 μM compound, 30° C., lower % = stronger binding
# How it was run: (§1)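 Compound at 20 μM mixed with 3.76 ng/mL polyAU dsRNA or salmon genomic dsDNA and 12500-fold diluted SybrSafe in 1 mM phosphate buffer pH 7.4, then heated to 30 °C and fluorescence read. Reduction is expressed as normalised %, with nucleic acid plus probe as maximum and probe alone as minimum.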
# [5] = tested on: Genomic double stranded DNA (salmon); assay: as above; settings: 20 μM compound, 30° C., lower % = stronger binding
# How it was run: as §1
# [6] = tested on: Staphylococcus aureus (ATCC 43300); assay: Antibacterial MIC, broth microdilution (CLSI); format: cell-based; settings: for S. aureus Selectivity Indices, Group: Alkyl Amidines and NH Pyrroles; for MIC80: Staphylococcus aureus, ATCC43300, read-out: MIC80 S. aureus
# Candida auris (H.17.157) = settings: for MIC99: Candidozyma auris, read-out: MIC99 Candida auris
# T. evansi AntTat 3/3 = assay: Resazurin-based (Alamar blue) drug sensitivity assay; settings: read-out: IC50 T. evansi
# Description: A detailed description of the procedure for evaluating activity against trypanosomes, using an Alamar Blue (resazurin) assay, is described below.
# The bloodstream form (BSF) T. b. brucei s427 (see De Koning, H. P. et al., Mol. Biochem. Parasitol. 2000, 106, 181-185), T. evansi AntTat 3/3 (see Dean, S. et al., Proc. Natl. Acad. Sci. USA, 2013, 110, 14741-14746), and T. equiperdum (see Stewart, M. L. et al., Eukaryot. Cell, 2010, 9, 336-343) were cultured in HMI-9 medium (Life Technologies, Paisley, United Kingdom) supplemented with 10% heat inactivated Foetal Bovine Serum (FBS (PAA Laboratories Linz, Austria)), 14 μL/L β-mercaptoethanol (BDH, Dorset, UK), and 3.0 g/L NaHCO3 (Sigma-Aldrich) and adjusted to pH 7.4. These cell lines were maintained at 37° C. in a humidified, 5% CO2 environment.
# A resazurin-based (Alamar blue) drug sensitivity assay was used to assess and compare the activity of standard trypanocides in the different cell lines investigated (see Gould, M. K. et al., Anal. Biochem., 2008, 382, 87-93). Briefly, 23 doubling dilutions of the test compound of the invention, starting at 100 μM, and a compound-free control were prepared in 100 μL medium in a 96-well white plate (Greiner Bio-one, Frickenhausen, Germany). The cells were adjusted to 2×10^4 cells/mL for T. b. brucei and T. equiperdum; 4×10^4 cells/mL for T. evansi; and 5×10^5 cells/mL for T. congolense in the appropriate medium. 100 μL of the adjusted cells was then added to the wells containing drug dilutions and incubated for 48 h under respective culture condition. Thereafter, 20 μL of 125 mg/mL resazurin sodium dye was added, and the plate was incubated for a further 24 h.
# [7] = tested on: Enterococcus faecalis (ATCC 51299); assay: Antibacterial MIC, broth microdilution (CLSI); format: cell-based; settings: for MIC80: Enterococcus faecalis, ATCC51299, read-out: MIC80 E. faecalis; for E. faecalis Selectivity Indices, Group: Alkyl Amidines and NH Pyrroles
# [8] = tested on: Escherichia coli (ATCC 25922); assay: Antibacterial MIC, broth microdilution (CLSI); format: cell-based; settings: Escherichia coli, ATCC25922; read-out: MIC80 E. coli
# [9] = tested on: A. fumigatus A1160 (MFIG001); settings: Aspergillus fumigatus, read-out: MIC99 A. fumigatus A1160
# C. neoformans (F10025) = settings: Cryptococcus neoformans, read-out: MIC99 C. neoformans
# [10] = tested on: human respiratory syncytial virus (RSV A2); assay: Viral ToxGlo assay, Hep-2 cells; format: cell-based; settings: 72 h
# Influenza (H1N1) = assay: Accelerated Viral Neuraminidase Inhibition Assay (AVINA), A549 cells; format: cell-based; settings: Influenza A virus, 72 h
# T. vaginalis = assay: Trichomonas resorufin assay; format: cell-based; settings: for IC50: Trichomonas vaginalis, read-out: IC50 T. vaginalis
# [11] = SI, IC50 (μM)/IC50 (μM), HEK293 cytotoxicity, Alkyl Amidines and NH Pyrroles
# [12] = SI, IC50 (μM)/MIC80 (μM), HEK293 cytotoxicity
# [13] = SI, IC50 (μM)/MIC80 (μM), HEK293 cytotoxicity, numeric value
Compound,IC50 [1] [µM],MIC99 [2] [mg/L],IC50 (T. equiperdum) [µM],MIC99 [3] [mg/L],% Normalised Fluorescence with polyAU RNA [4] [%],% Normalised Fluorescence with gDNA [5] [%],"S. aureus Selectivity Indices, Group [6, 12]",MIC80 [6] [µM],MIC99 (Candida auris (H.17.157)) [mg/L],IC50 (T. evansi AntTat 3/3) [µM],MIC80 [7] [µM],MIC80 [8] [µM],MIC99 [9] [mg/L],MIC99 (C. neoformans (F10025)) [mg/L],inhibition at 20 µM [10] [%],"E. faecalis Selectivity Indices, Group [7, 12]",inhibition at 20 µM (Influenza (H1N1)) [%],IC50 (T. vaginalis) [µM],also measured
"[H]/N=C(\CCNC(=O)c1cc(NC(=O)c2cc(NC(=O)c3ccc(C=Cc4ccc(N(C)C)cc4)nc3)cn2C)cn1C)NCC [Ia1, (E)-6-(4-(dimethylamino)styryl)-N-(5-((5-((3-(ethylamino)-3-iminopropyl)carbamoyl)-1-methyl-1H-pyrrol-3-yl)carbamoyl)-1-methyl-1H-pyrrol-3-yl)nicotinamide]",2 to 8,< 5,0.1 to 1,> 50,5,13,B (Group B: 3 < SI <= 5),5 to 25,5 to 25,0.01 to 0.1,25 to 100,> 100,5 to 25,< 5,,,,,"SARS-CoV-2 Selectivity Indices, Group [1, 11]: B (Group B: 4.1 < SI <= 10); C. auris Selectivity Indices, Group (Candida auris (H.17.157); SI, IC50 (μM)/MIC99 (μg/mL), HEK293 cytotoxicity, Alkyl Amidines and NH Pyrroles): B (Group B: 0.4 < SI <= 1)"
"CC/N=C(\N)CCNC(=O)c1cc(NC(=O)c2cc(NC(=O)c3ccc(/C=C/c4cnc5ccccc5c4)cc3)cn2C)cn1C [Ia14, N—((Z)-3-amino-3-(ethylimino)propyl)-1-methyl-4-(1-methyl-4-(4-((E)-2-(quinolin-3-yl)vinyl)benzamido)-1H-pyrrole-2-carboxamido)-1H-pyrrole-2-carboxamide]",,5 to 25,,> 50,6,2,D (D: SI > 10),< 5,> 50,,< 5,> 100,> 50,5 to 25,10 to 25,D (D: SI > 10),< 10,< 1,"S. aureus Selectivity Index (SI) [6, 13]: 44; E. faecalis Selectivity Index (SI) [7, 13]: 11; T. vaginalis Selectivity Indices, Group (T. vaginalis; [11]): D (Group D: SI > 32); T. vaginalis Selectivity Index (SI) (T. vaginalis; SI, IC50 (μM)/IC50 (μM), HEK293 cytotoxicity, numeric value): 35"
"COc1ccc(/C=C/c2ccc(C(=O)Nc3cc(C(=O)Nc4cc(C(=O)NCCC(=N)NC(C)C)n(C)c4)n(C)c3)cn2)cc1 [Ia15, (E)-N-(5-((5-((3-imino-3-(isopropylamino)propyl)carbamoyl)-1-methyl-1H-pyrrol-3-yl)carbamoyl)-1-methyl-1H-pyrrol-3-yl)-6-(4-methoxystyryl)nicotinamide]",8 to 32,5 to 25,0.1 to 1,,64,16,C (Group C: 5 < SI <= 10),5 to 25,,0.1 to 1,5 to 25,25 to 100,25 to 50,< 5,10 to 25,,,> 50,
"[H]/N=C(\CCNC(=O)c1cc(NC(=O)c2cc(NC(=O)c3ccc(C=Cc4ccc(C#N)cc4)cc3)cn2C)cn1C)NCC [Ia16, (E)-4-(4-(4-cyanostyryl)benzamido)-N-(5-((3-(ethylamino)-3-iminopropyl)carbamoyl)-1-methyl-1H-pyrrol-3-yl)-1-methyl-1H-pyrrole-2-carboxamide]",,25 to 50,,,27,31,,25 to 100,,,5 to 25,> 100,> 50,5 to 25,25 to 50,B (Group B: 3 < SI <= 5),25 to 50,5 to 50,
"[H]/N=C(\CCNC(=O)c1cc(NC(=O)c2cc(NC(=O)c3ccc(C=Cc4ccc(C#N)cc4)cc3)cn2C)cn1C)NC(C)C [Ia17, (E)-4-(4-(4-cyanostyryl)benzamido)-N-(5-((3-imino-3-(isopropylamino)propyl)carbamoyl)-1-methyl-1H-pyrrol-3-yl)-1-methyl-1H-pyrrole-2-carboxamide]",,25 to 50,,,28,13,,25 to 100,,,25 to 100,> 100,> 50,> 50,10 to 25,,10 to 25,5 to 50,
